Results published in patent US20120208781A1, “AMINOGLYCOSIDE DOSING REGIMENS” (Achaogen, Inc., priority 2009, published 2012).
≈ marks a conversion by molar mass, not a printed value. Where “and” joins values, the source holds several entries; their conditions need not be identical. Equal entries are not always repeated. Where two headings read alike, the source gives them in different places.

Assays:
[1] = tested on: E. coli (EC); test: MIC, broth microdilution, Brooklyn hospital isolates: E. coli; format: cell-based; conditions: Escherichia coli; EC (n = 32)
Procedure: (§1) In another study, the activity of Compound 1 against a collection of contemporary Gram-negative bacteria was determined. Unique patient isolates of P. aeruginosa (PA), A. baumannii (AB), K. pneumoniae (KP), E. coli (EC), and Enterobacter spp. (EB) from prior surveys at 16 Brooklyn, N.Y. hospitals were selected based on resistance patterns. The majority of isolates were fingerprinted by automated ribotyping. MICs were performed by broth microdilution. PCR was used to identify aminoglycoside-modifying enzymes (AMEs) in AB and KP and the KPC gene in Enterobacteriaceae (EN). The expression of the efflux genes mexA, C, E and X in PA, and adeB in AB was assessed by real-time RT-PCR.

[2] = Urine concentration analysis / urinary recovery of Compound 1 in beagle dogs; format: in vivo; conditions: 10 mg/kg IV; for % of Cmpd 1 recovered in urine: 24 hours; for concentration at 6 h / concentration at 12 h / concentration at 24 h: male, beagle, dog, urine, iv, read-out: Cmpd 1 urine concentration
Procedure: (§2) Male CD-1 mice, Sprague Dawley rats, and beagle dogs were administered Compound 1 intravenously. Compound 1 was preformulated as a sterile isotonic solution of 10 mg/mL in PBS. Specifically, male CD-1 mice were administered a single bolus IV injection of the Compound at 10 mg/kg, via a bolus IV injection into the tail vein. Two blood samples per mouse were collected by retro-orbital puncture into tubes containing the anticoagulant K2EDTA prior to dosing and at 0.033, 0.083, 0.25, 0.5, 1 and 24 hours. Rats were administered Compound 1 at 10 mg/kg via a bolus IV injection into the tail vein. Twelve blood samples per rat were collected via a jugular vein cannula into tubes containing the anticoagulant K2EDTA at various timepoints (i.e., 0.033, 0.083, 0.25, 0.5, 1, 2, 4, 6, 8, 10, 12, and 24 hours). Male beagle dogs were administered Compound 1 at 10 mg/kg through a temporary percutaneous catheter placed in a peripheral vein. Whole blood samples (0.5 mL) were collected from each dog prior to dosing and at 0.033, 0.083, 0.25, 0.5, 1, 2, 4, 6, 8, and 24 hours via direct venipuncture of a jugular or cephalic vein into tubes containing the anticoagulant K2EDTA. A sparse sampling method was employed to conserve animals and provide the best data possible from fewer mice. Samples were centrifuged, and plasma was collected and transferred into a new tube and frozen at −80° C. until they were analyzed.
(§3) Blood, urine, and kidney samples collected over 24 hours were analyzed for Compound 1 levels using LC-MS/MS. Method performance was acceptable in the concentration ranges necessary to determine plasma levels. Compound 1 plasma concentrations were determined by comparing Compound 1 concentration in the sample to a standard curve derived from LC-MS/MS measurements of the analyte. The standard curve fit was linear with a 1/x^2 weighting.

[3] = tested on: Enterobacteriaceae (EN); test: MIC, broth microdilution, Brooklyn hospital isolates: Enterobacteriaceae subsets (amikacin-resistant, KPC+); format: cell-based
Procedure: as §1

[4] = Pharmacokinetics of Compound 1 after single bolus IV injection in mice; format: in vivo, CD-1 mice; conditions: 10 mg/kg single bolus IV; for C0: 10 mg/kg
Procedure: as §2, §3
(§4) Bioanalytical data analyses were carried out using Analyst software (version 1.4.1, Applied Biosystems, Toronto, ON, Canada). […] PK parameters were determined by noncompartmental analysis using WinNonLin. Plasma protein binding was determined using equilibrium dialysis. In vitro stability was determined using commercially available plasma, microsomes and hepatocytes.

[5] = Plasma protein binding by equilibrium dialysis; format: in vitro ADME
Procedure: as §4

[6] = tested on: cochlear function, vestibular function; test: First-in-human phase 1 study: cochlear and vestibular function (ototoxicity); format: in vivo; conditions: healthy volunteers
Procedure: Safety evaluation was based on clinical observations, vital sign measurements, laboratory tests, physical examination, electrocardiogram, cochlear function, vestibular function testing, and reported adverse events. Cochlear function was evaluated by pure tone audiometry with bone conduction and otoacoustic emission (OAE) testing. Vestibular function was evaluated by electronystagmography (ENG) and Dynamic Visual Acuity (DVA) test. Laboratory tests included complete blood count (CBC), serum chemistries, and urinalysis. BUN and creatinine (Cr) were assessed daily on dosing days to allow the Investigator to monitor renal function. Results were used as criteria for dose escalation. The glomerular filtration rate (GFR) was estimated using iothalamate plasma measurements before dosing and after the multiple dose periods. GFR was also assessed by Cr clearance before dosing and after the multiple dose periods.
Complete physical examinations and ECGs were completed at screen and 2 days after the last multiple-dose. Abbreviated physical examinations were completed prior to the single-dose and prior to the first multiple-dose (those receiving IMP for 10 days have an additional examination prior to the 6th multiple-dose infusion). Vital signs were assessed at screen and all visits during treatment period. Additional safety assessments, including pure tone audiometry and ENG caloric, testing was performed or will be performed at 3 and 6 months after the last dose. Concomitant therapies and adverse events are assessed throughout the screen and treatment period.

[7] = First-in-human phase 1 study: urine levels of Compound 1; format: in vivo; conditions: Cohort 4 (15 mg/kg)
Procedure: Pooled urine samples for PK analysis were obtained with the single dose and first and last multiple-dose.
The levels of Compound 1 present in the urine of Cohort 4 patients during the 24 hours following administration of the third multi-dose was also examined. […] Perhaps of even greater significance, the concentration of Compound 1 achieved in the urine was at least 1 mg/ml immediately following administration, and remained over 0.1 mg/ml for 12 hours.

[8] = GLP 14-day repeat-dose safety study in rat; format: in vivo
Source text: The Food and Drug Administration (FDA) has provided general guidance for estimating the maximum recommended starting dose (MRSD) for initial human clinical trials. The guidance states that the MRSD must be derived from the no observable adverse effect level (NOAEL) obtained in Good Laboratory Practice (GLP) nonclinical animal safety studies. The NOAEL for Compound 1 has been determined in GLP 14-day repeat-dose safety studies in both rat and dog. Estimation of the human equivalent dose (HED) at the NOAEL is based on both a surface area conversion factor (SACF) and the data from these studies. Based on this standard methodology, the HED for the predicted NOAEL in each species has been determined and is presented in Table 18.

CN[C@@H]1[C@@H](O)[C@@H](O[C@@H]2[C@@H](O)[C@H](O[C@H]3OC(CNCCO)=CC[C@H]3N)[C@@H](N)C[C@H]2NC(=O)[C@@H](O)CCN)OC[C@]1(C)O [Compound 1, 6′-(2-Hydroxy-ethyl)-1-(4-amino-2(S)-hydroxy-butyryl)-sisomicin]
MIC50 [1]: 1 µg/mL (≈ 1.69 µM) | MIC90 [1]: 2 µg/mL (≈ 3.37 µM) | % of Cmpd 1 recovered in urine ([2]; Dog 6001): 134% | % of Cmpd 1 recovered in urine ([2]; Dog 6002): 135% | % of Cmpd 1 recovered in urine ([2]; Dog 6003): 87% | % of Cmpd 1 recovered in urine ([2]; Mean (±SD), 10 mg/kg): 119% and 119 ± 22% | Cmpd 1 urine concentration ([2]; Dog 6001, Total): 1070 µg/mL | Cmpd 1 urine concentration ([2]; Dog 6002, Total): 573 µg/mL | Cmpd 1 urine concentration ([2]; Dog 6003, 6 hr): 1180 µg/mL | Cmpd 1 urine concentration ([2]; Dog 6003, Total): 1324 µg/mL | concentration at 6 h ([2]; 10 mg/kg, Dog 6001, 6 hr): 1000 µg/mL | concentration at 12 h ([2]; 10 mg/kg, Dog 6001, 12 hr): 47 µg/mL | concentration at 24 h ([2]; 10 mg/kg, Dog 6001, 24 hr): 24 µg/mL | concentration at 6 h ([2]; 10 mg/kg, Dog 6002, 6 hr): 505 µg/mL | concentration at 24 h ([2]; 10 mg/kg, Dog 6002, 24 hr): 68 µg/mL | concentration at 12 h ([2]; 10 mg/kg, Dog 6003, 12 hr): 100 µg/mL | concentration at 24 h ([2]; 10 mg/kg, Dog 6003, 24 hr): 44 µg/mL | MIC50 [3]: 0.5 µg/mL (≈ 0.844 µM) | MIC90 ([3]; Amikacin-Resistant-EN (n = 35)): 2 µg/mL (≈ 3.37 µM) | MIC50 ([3]; KPC +− EN (n = 24)): 0.5 µg/mL (≈ 0.844 µM) | MIC90 ([3]; KPC +− EN (n = 24)): 4 µg/mL (≈ 6.75 µM) | C0 [4]: 87.6 µg/mL | AUC(0-inf) ([4]; male, CD-1, mouse, plasma): 18500 ng·h/mL | clearance ([4]; male, CD-1, mouse, plasma): 9.02 mL/min/kg | half-life ([4]; male, CD-1, mouse, plasma): 1.4 h | MRT inf ([4]; male, CD-1, mouse, plasma, read-out: MRT0-∞): 0.6 h | Vd ([4]; male, CD-1, mouse, plasma, read-out: Vss): 0.34 L | Vd ([4]; male, CD-1, mouse, plasma, read-out: volume of distribution at steady state (Vss)): 0.34 L/kg | C0 ([4]; male, CD-1, mouse, plasma, iv, read-out: C0): 88 µg/mL | fraction unbound [5]: > 0.8 | cochlear function (pure tone audiometry, bone conduction, OAE) [6]: did not reveal any treatment related effects | ototoxicity signal [6]: No ototoxocity signal | vestibular function (ENG and DVA) [6]: did not reveal any treatment related effects | urine concentration immediately following administration [7]: at least 1 mg/ml | urine concentration maintained for 12 hours [7]: over 0.1 mg/ml | administered Compound 1 excreted within 24 hours (upper estimate) ([7]; after third multi-dose): about 90% | average fraction excreted in urine in an unchanged form over 24 hours ([7]; after third multi-dose): 75% | HED ([8]; from rat NOAEL, SACF 6.2): 1.3 mg/kg | new toxicities ([8]; nonclinical GLP safety studies in rats): no new toxicities apart from those already known to the class | NOAEL at 14 days ([8]; rat, in vivo): 8 mg/kg
